Experimental data: patent US11358969B2, “Indole AHR inhibitors and uses thereof” (Ikena Oncology, Inc., priority 2017, dated 2022)
pIC50: −log10 of the molar value.

Assays:
[1] = In Vitro Mouse liver S9 Metabolic Stability Assay (Example 1D); type: in vitro ADME; details: CD-1 mouse liver S9, 1 μM compound, 1 mg/mL S9 protein, 37° C., NADPH regenerating system, UDPGA, PAPS
Method in brief: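 Compound at 1 μM final (0.1% DMSO) incubated at 37° C with pooled CD-1 mouse liver S9 (1 mg/mL protein) plus NADPH-regenerating system, UDPGA and PAPS. Samples at 0 and 60 min quenched in cold acetonitrile with internal standard; LC-MS/MS analyte/IS peak-area ratios give % remaining at 60 min.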

[2] = biological target: T1, AHR (UniProt P35869); assay: DRE-Luciferase Reporter Assay (Alternate Method) (Example 1B); type: cell-based, murine or human; details: cell line and AHR activating ligand not specified
T1 construct: IC50
T1 sequence (P35869 1-848): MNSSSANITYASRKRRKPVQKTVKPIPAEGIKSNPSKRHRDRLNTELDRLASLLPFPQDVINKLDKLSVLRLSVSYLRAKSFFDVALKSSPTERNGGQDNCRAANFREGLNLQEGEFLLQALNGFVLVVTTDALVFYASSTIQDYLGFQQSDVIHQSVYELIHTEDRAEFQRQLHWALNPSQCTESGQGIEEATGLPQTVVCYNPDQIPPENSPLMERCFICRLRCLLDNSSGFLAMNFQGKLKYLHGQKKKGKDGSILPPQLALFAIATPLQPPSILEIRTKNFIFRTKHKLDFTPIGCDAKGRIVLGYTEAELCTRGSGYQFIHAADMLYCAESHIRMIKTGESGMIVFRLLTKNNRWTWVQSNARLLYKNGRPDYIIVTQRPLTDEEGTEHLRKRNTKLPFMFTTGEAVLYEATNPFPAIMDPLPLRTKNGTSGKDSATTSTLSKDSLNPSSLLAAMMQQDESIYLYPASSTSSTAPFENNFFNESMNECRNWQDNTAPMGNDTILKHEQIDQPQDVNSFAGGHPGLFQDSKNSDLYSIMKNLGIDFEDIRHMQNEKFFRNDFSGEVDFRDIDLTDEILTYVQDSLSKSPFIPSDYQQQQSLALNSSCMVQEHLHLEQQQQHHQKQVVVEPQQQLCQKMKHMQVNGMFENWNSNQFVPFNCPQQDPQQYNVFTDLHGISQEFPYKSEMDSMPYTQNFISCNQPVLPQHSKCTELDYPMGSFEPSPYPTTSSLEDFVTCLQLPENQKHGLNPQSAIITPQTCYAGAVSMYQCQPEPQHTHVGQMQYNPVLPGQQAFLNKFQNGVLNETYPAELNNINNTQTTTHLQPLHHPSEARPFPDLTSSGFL

[3] = biological target: T1, AHR; assay: DRE-Luciferase Reporter Assay (Example 1A); type: cell-based, murine or human; details: cell line and AHR activating ligand not specified
Protocol: AHR binds to Dioxin Responsive Elements (DRE) upstream of genes that it activates. One measure of AHR activity is activation of a reporter gene, such as luciferase, downstream of one or multiple DRE elements. Luciferase activity will reflect activation and inhibition of AHR in the cells expressing his reporter.
Murine Hepa1-6 or Hepa-1c1c7 or other murine cell line with a DRE-luciferase reporter either stably or transiently transfected were plated in media in plates (96-well, 384-well or other plates) and incubated overnight at 37° C. in a CO2 incubator. Likewise, human HepG2 or other human cell line with a DRE-luciferase reporter either stably or transiently transfected were plated in media in plates (96-well, 384-well or other plates) and incubated overnight at 37° C. in a CO2 incubator.
The next day, an AHR activating ligand, such as TCDD, kynurenine, ITE (2-(1H-indole-3-ylcarbonyl)-4-thiazolecarboxylic methyl ester), VAF347, BNF (beta-naphthoflavone), FICZ (6-formylindolo(3,2-b) carbazole or other AHR ligands, was added with or without AHR antagonist.
Cells were incubated for 4, 15 or 24 hours or another time point and then lysed for determination of luciferase activity as a read-out of the AHR activation or inhibition. Luciferase was measured with a commercial kit such as the Promega Luciferase kit or any kit or reagents that provide the luciferin substrate for measuring luciferase activity. The level of luciferase with only activating ligand added was the maximum signal while the luciferase with no ligand was the minimum signal. IC50 values were determined as the concentration which inhibits half of the luciferase activity.

Mouse S9 Stability: % Remaining After 60 Minutes [1]	pIC50 [2]	pIC50 [3]	Compound
0%	> 6.30	> 6.30	CC(C)n1ccc2c(NCCc3c[nH]c4ccccc34)nc(-c3cncc(F)c3)nc21 [I-4, 2-(5-Fluoro-3-pyridyl)-N-[2-(1H-indol-3-yl)ethyl]-7-isopropyl-pyrrolo[2,3-d]pyrimidin-4-amine]
0%	> 6.30	> 6.30	CC(C)n1cnc2c(NCCc3c[nH]c4ccccc34)nc(-c3cncc(F)c3)nc21 [I-6]
	6.00 to 6.30	5.82 to 6.00	CC(C)n1cnc2c(NCCc3c[nH]c4cnccc34)nc(-c3cncc(F)c3)nc21 [I-9, 2-(5-Fluoro-3-pyridyl)-9-isopropyl-N-[2-(1H-pyrrolo[2,3-c]pyridin-3-yl)ethyl]purin-6-amine]
	> 6.30	6.00 to 6.30	CC(C)c1ccc2c(NCCc3c[nH]c4ccccc34)nc(-c3cncc(F)c3)nn12 [I-19, N-(2-(1H-Indol-3-yl)ethyl)-2-(5-fluoropyridin-3-yl)-7-isopropylpyrrolo[2,1-f][1,2,4]triazin-4-amine]
